Experimental data taken from US20260015350A1, “AZAQUINAZOLINE PAN-KRAS INHIBITORS” (Mirati Therapeutics, Inc., priority 2022, published 2026).

Legend:
[1] = system: KRas-mediated phosphorylation of ERK in HCT116 cells; assay: Inhibition of KRas-mediated phosphorylation of ERK (Cisbio HTRF pERK), HCT116 cells; type: cell-based; conditions: Homo sapiens, HCT-116, 3 h, single point, 100 nM compound, 3 hrs
Summary of the method: (§1)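 Min control wells contained 0.2 uM Trametinib, while test compounds ran as 10 doses (3-fold, top 10 uM; 0.8% DMSO final) on cells for 3 hrs. After 40 mins lysis at 4° C, lysates were probed with HTRF antibodies for 2 hrs at room temperature.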

[2] = system: KRas-mediated phosphorylation of ERK in A549 cells; assay: Inhibition of KRas-mediated phosphorylation of ERK (Cisbio HTRF pERK), A549 cells; type: cell-based; conditions: Homo sapiens, A549, 3 h, single point, 100 nM compound, 3 hrs
Summary of the method: as §1

[3] = system: KRas-mediated phosphorylation of ERK in H727 cells; assay: Inhibition of KRas-mediated phosphorylation of ERK (Cisbio HTRF pERK), H727 cells; type: cell-based; conditions: Homo sapiens; for IC50: NCI-H727, H727 cells, HTRF pERK; for inhibition at 0.1 µM: NCI-H727, 3 h, single point, 100 nM compound, 3 hrs, H727 cells
Summary of the method: (§2)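 HTRF readout of phospho-ERK in cell lysates after 3 hrs of compound exposure. Dosing: 10 uM top, 3-fold steps, 10 doses, final DMSO 0.8%. Min control: 0.2 uM Trametinib. Lysis ran 40 mins at 4° C, and antibody detection 2 hrs at room temperature.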

[4] = biological target: T1, KRas^G13D (Homo sapiens, UniProt P01116, G13D); assay: KRas binding assay (TR-FRET tracer displacement), KRas G13D; conditions: for IC50: TR-FRET tracer displacement, KRas G13D
T1 construct: Biotinylated KRas (corresponding to amino acids 1-169, produced at Accelegan Inc.); biotin (biotinylated); purchased Accelegan Inc
T1 sequence (P01116 1-169 isoform P01116-2 G13D): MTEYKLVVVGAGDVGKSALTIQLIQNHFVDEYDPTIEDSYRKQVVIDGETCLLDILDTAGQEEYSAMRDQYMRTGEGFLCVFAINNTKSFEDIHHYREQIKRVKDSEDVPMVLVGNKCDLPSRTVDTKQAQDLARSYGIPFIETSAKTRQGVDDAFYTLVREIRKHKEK

[5] = biological target: T2, KRas^G12D (Homo sapiens, UniProt P01116, G12D); assay: KRas binding assay (TR-FRET tracer displacement), KRas G12D
T2 construct: Biotinylated KRas (corresponding to amino acids 1-169, produced at Accelegan Inc.); biotin (biotinylated); purchased Accelegan Inc
T2 sequence (P01116 1-169 isoform P01116-2 G12D): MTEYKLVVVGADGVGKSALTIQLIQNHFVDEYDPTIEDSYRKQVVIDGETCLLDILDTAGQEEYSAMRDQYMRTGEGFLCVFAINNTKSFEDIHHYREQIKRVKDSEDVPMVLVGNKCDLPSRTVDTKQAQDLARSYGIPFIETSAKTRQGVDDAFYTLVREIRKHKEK

[6] = biological target: T3, KRas^Q61H (Homo sapiens, UniProt P01116, Q61H); assay: KRas binding assay (TR-FRET tracer displacement), KRas Q61H; conditions: for IC50: TR-FRET tracer displacement, KRas Q61H
T3 construct: Biotinylated KRas (corresponding to amino acids 1-169, produced at Accelegan Inc.); biotin (biotinylated); purchased Accelegan Inc
T3 sequence (P01116 1-169 isoform P01116-2 Q61H): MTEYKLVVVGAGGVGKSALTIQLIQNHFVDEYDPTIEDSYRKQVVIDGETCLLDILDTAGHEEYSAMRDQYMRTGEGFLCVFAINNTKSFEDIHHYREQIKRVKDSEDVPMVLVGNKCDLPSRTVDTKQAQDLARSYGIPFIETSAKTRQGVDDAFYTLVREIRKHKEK

[7] = system: KRas-mediated phosphorylation of ERK in AsPC-1 cells; assay: Inhibition of KRas-mediated phosphorylation of ERK (Cisbio HTRF pERK), AsPC-1 cells; type: cell-based; conditions: Homo sapiens; for IC50: ASPC1, AsPC-1 cells, HTRF pERK; for inhibition at 0.1 µM: ASPC1, 3 h, single point, 100 nM compound, 3 hrs, AsPC-1 cells
Summary of the method: as §2

[8] = biological target: T4, KRas^G12C (Homo sapiens, UniProt P01116, G12C); assay: KRas binding assay (TR-FRET tracer displacement), KRas G12C; conditions: for IC50: TR-FRET tracer displacement, KRas G12C
T4 construct: Biotinylated KRas (corresponding to amino acids 1-169, produced at Accelegan Inc.); biotin (biotinylated); purchased Accelegan Inc
T4 sequence (P01116 1-169 isoform P01116-2 G12C): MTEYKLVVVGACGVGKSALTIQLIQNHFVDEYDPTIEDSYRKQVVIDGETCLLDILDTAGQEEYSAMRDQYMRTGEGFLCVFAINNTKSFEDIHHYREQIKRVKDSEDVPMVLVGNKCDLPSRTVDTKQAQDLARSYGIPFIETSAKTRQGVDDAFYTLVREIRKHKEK

[9] = biological target: T5, KRas^G12R (Homo sapiens, UniProt P01116, G12R); assay: KRas binding assay (TR-FRET tracer displacement), KRas G12R
T5 construct: Biotinylated KRas (corresponding to amino acids 1-169, produced at Accelegan Inc.); biotin (biotinylated); purchased Accelegan Inc
T5 sequence (P01116 1-169 isoform P01116-2 G12R): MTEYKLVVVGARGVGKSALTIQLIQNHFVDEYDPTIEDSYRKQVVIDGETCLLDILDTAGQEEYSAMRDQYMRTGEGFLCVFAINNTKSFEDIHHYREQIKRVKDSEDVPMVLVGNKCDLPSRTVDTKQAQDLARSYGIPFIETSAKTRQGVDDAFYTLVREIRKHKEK

[10] = biological target: T6, KRas^WT (Homo sapiens, UniProt P01116); assay: KRas binding assay (TR-FRET tracer displacement), KRas WT; conditions: for IC50: TR-FRET tracer displacement, KRas WT
T6 construct: Biotinylated KRas (corresponding to amino acids 1-169, produced at Accelegan Inc.); biotin (biotinylated); purchased Accelegan Inc
T6 sequence (P01116 1-169 isoform P01116-2): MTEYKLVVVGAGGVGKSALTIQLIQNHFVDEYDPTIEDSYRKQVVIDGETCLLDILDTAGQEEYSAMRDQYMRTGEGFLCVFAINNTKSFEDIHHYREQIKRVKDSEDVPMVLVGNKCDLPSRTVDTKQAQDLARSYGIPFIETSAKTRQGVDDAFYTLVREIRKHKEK

[11] = biological target: T7, KRas^G12A (Homo sapiens, UniProt P01116, G12A); assay: KRas binding assay (TR-FRET tracer displacement), KRas G12A; conditions: for IC50: TR-FRET tracer displacement, KRas G12A
T7 construct: Biotinylated KRas (corresponding to amino acids 1-169, produced at Accelegan Inc.); biotin (biotinylated); purchased Accelegan Inc
T7 sequence (P01116 1-169 isoform P01116-2 G12A): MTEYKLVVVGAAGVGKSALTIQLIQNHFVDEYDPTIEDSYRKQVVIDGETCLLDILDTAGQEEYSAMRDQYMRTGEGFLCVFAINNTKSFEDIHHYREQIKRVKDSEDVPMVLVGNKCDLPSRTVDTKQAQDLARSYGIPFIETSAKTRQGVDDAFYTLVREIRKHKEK

[12] = system: KRas-mediated phosphorylation of ERK in H460 cells; assay: Inhibition of KRas-mediated phosphorylation of ERK (Cisbio HTRF pERK), H460 cells; type: cell-based; conditions: Homo sapiens, NCI-H460, 3 h, single point, 100 nM compound, 3 hrs
Summary of the method: as §2

[13] = biological target: T8, KRas^G12S (Homo sapiens, UniProt P01116, G12S); assay: KRas binding assay (TR-FRET tracer displacement), KRas G12S; conditions: for IC50: TR-FRET tracer displacement, KRas G12S
T8 construct: Biotinylated KRas (corresponding to amino acids 1-169, produced at Accelegan Inc.); biotin (biotinylated); purchased Accelegan Inc
T8 sequence (P01116 1-169 isoform P01116-2 G12S): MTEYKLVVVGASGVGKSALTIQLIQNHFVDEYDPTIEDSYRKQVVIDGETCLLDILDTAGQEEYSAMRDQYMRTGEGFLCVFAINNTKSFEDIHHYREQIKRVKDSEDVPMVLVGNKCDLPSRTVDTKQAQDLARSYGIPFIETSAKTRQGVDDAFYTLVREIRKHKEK

[14] = biological target: T9, KRas^G12V (Homo sapiens, UniProt P01116, G12V); assay: KRas binding assay (TR-FRET tracer displacement), KRas G12V
T9 construct: Biotinylated KRas (corresponding to amino acids 1-169, produced at Accelegan Inc.); biotin (biotinylated); purchased Accelegan Inc
T9 sequence (P01116 1-169 isoform P01116-2 G12V): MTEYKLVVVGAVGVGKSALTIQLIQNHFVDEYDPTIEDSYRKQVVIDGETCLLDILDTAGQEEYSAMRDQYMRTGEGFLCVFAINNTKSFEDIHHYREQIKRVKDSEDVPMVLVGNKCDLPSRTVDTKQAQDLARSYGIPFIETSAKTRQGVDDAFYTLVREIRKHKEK

[15] = system: KRas-mediated phosphorylation of ERK in H358 cells; assay: Inhibition of KRas-mediated phosphorylation of ERK (Cisbio HTRF pERK), H358 cells; type: cell-based; conditions: Homo sapiens, NCI-H358, 3 h, single point, 100 nM compound, 3 hrs
Summary of the method: as §2

[16] = single point, 10 nM compound, TR-FRET

| IC50 [3] [nM] | IC50 [4] [nM] | IC50 [5] [nM] | IC50 [6] [nM] | IC50 [7] [nM] | IC50 [8] [nM] | IC50 [9] [nM] | IC50 [10] [nM] | IC50 [11] [nM] | IC50 [13] [nM] | IC50 [14] [nM] | SMILES | inhibition at 0.1 µM [1] [%] | inhibition at 0.1 µM [2] [%] | inhibition at 0.1 µM [12] [%] | inhibition at 0.1 µM [15] [%] | further results |
| --- | --- | --- | --- | --- | --- | --- | --- | --- | --- | --- | --- | --- | --- | --- | --- | --- |
| 1340 | 107 | 226 | 166 | 2260 | 106 | 68 | 117 | 82 | 64 | 59 | Cc1ccc2c(-c3ncc4c(N5C[C@@H]6C[C@H](C5)[C@H](O)C6)nc(OC[C@@]56CCCN5C[C@H](F)C6)nc4c3F)cc(O)cc2c1 [Example 746, (1R,5R,6R)-3-(8-fluoro-2-(((2R,7aS)-2-fluorotetrahydro-1H-pyrrolizin-7a(5H)-yl)methoxy)-7-(3-hydroxy-6-methylnaphthalen-1-yl)pyrido[4,3-d]pyrimidin-4-yl)-3-azabicyclo[3.2.1]octan-6-ol] | 10 | -19 | 2 | -17 | – |
| 1260 | 94 | 272 | 180 | 3850 | 107 | 76 | 107 | 36 | 61 | 67 | Cc1cccc2c(-c3ncc4c(N5C[C@@H]6C[C@H](C5)[C@H](O)C6)nc(OC[C@@]56CCCN5C[C@H](F)C6)nc4c3F)cc(O)cc12 [Example 747, (1R,5R,6R)-3-(8-fluoro-2-(((2R,7aS)-2-fluorohexahydro-1H-pyrrolizin-7a-yl)methoxy)-7-(3-hydroxy-5-methylnaphthalen-1-yl)pyrido[4,3-d]pyrimidin-4-yl)-3-azabicyclo[3.2.1]octan-6-ol] | 5 | 4 | -6 | -6 | – |
| 275 | 21 | 32 | 26 | 788 | 18 | 11 | 20 | 16 | 12 | 12 | Oc1cc(-c2ncc3c(N4C[C@@H]5C[C@H](C4)[C@H](O)C5)nc(OC[C@@]45CCCN4C[C@H](F)C5)nc3c2F)c2cccc(F)c2c1 [Example 748, (1R,5R,6R)-3-(8-fluoro-7-(5-fluoro-3-hydroxynaphthalen-1-yl)-2-(((2R,7aS)-2-fluorohexahydro-1H-pyrrolizin-7a-yl)methoxy)pyrido[4,3-d]pyrimidin-4-yl)-3-azabicyclo[3.2.1]octan-6-ol] | 21 | -7 | -6 | 5 | – |
| 246 | 37 | 54 | 44 | 1400 | 29 | 16 | 34 | 25 | 19 | 19 | Oc1cc(-c2ncc3c(N4C[C@@H]5C[C@H](C4)[C@H](O)C5)nc(OC[C@@]45CCCN4C[C@H](F)C5)nc3c2F)c2ccc(F)cc2c1 [Example 749, (1R,5R,6R)-3-(8-fluoro-7-(6-fluoro-3-hydroxynaphthalen-1-yl)-2-(((2R,7aS)-2-fluorohexahydro-1H-pyrrolizin-7a-yl)methoxy)pyrido[4,3-d]pyrimidin-4-yl)-3-azabicyclo[3.2.1]octan-6-ol] | 20 | 15 | -3 | -5 | – |
| 1680 | 74 | 98 | 184 | 1900 | 74 | 42 | 84 | 63 | 43 | 29 | Oc1cc(-c2ncc3c(N4C[C@@H]5C[C@H](C4)[C@H](O)C5)nc(OC[C@@]45CCCN4C[C@H](F)C5)nc3c2F)c2ccccc2c1F [Example 750, (1R,5R,6R)-3-(8-fluoro-7-(4-fluoro-3-hydroxynaphthalen-1-yl)-2-(((2R,7aS)-2-fluorotetrahydro-1H-pyrrolizin-7a(5H)-yl)methoxy)pyrido[4,3-d]pyrimidin-4-yl)-3-azabicyclo[3.2.1]octan-6-ol] | 2 | -1 | 16 | 15 | inhibition at 0.1 µM [3]: 1%; inhibition at 0.1 µM [7]: -1% |
| 53 | – | < 2 | – | 55 | – | < 2 | – | – | – | < 2 | C#Cc1c(F)ccc2cc(O)cc(-c3ncc4c(N5CCC[C@@](C)(O)C5)nc(OCC5(CN6CCCC6)CC5)nc4c3F)c12 [Example 752, (R)-1-(7-(8-ethynyl-7-fluoro-3-hydroxynaphthalen-1-yl)-8-fluoro-2-((1-(pyrrolidin-1-ylmethyl)cyclopropyl)methoxy)pyrido[4,3-d]pyrimidin-4-yl)-3-methylpiperidin-3-ol] | 32 | 31 | 44 | 76 | inhibition at 0.1 µM [3]: 31%; inhibition at 0.01 µM [4, 16]: 98%; inhibition at 0.01 µM [6, 16]: 99%; inhibition at 0.1 µM [7]: 27%; inhibition at 0.01 µM [8, 16]: 99%; inhibition at 0.01 µM [10, 16]: 97%; inhibition at 0.01 µM [11, 16]: 96%; inhibition at 0.01 µM [13, 16]: 97% |
| 1780 | < 2 | 5 | < 2 | 1270 | < 2 | < 2 | < 2 | < 2 | < 2 | < 2 | O=S1(=O)NCC2(CCCN(c3nc(OCC45CCCN4CCC5)nc4c(F)c(-c5c6ccccc6cc6[nH]ncc56)ncc34)C2)N1 (stereo not shown) [Example 758, 7-(7-(1H-benzo[f]indazol-4-yl)-8-fluoro-2-((hexahydro-1H-pyrrolizin-7a-yl)methoxy)pyrido[4,3-d]pyrimidin-4-yl)-2-thia-1,3,7-triazaspiro[4.5]decane 2,2-dioxide] | 20 | 11 | 9 | 23 | – |
| 498 | 36 | 70 | 45 | 1250 | 33 | 18 | 36 | 25 | 20 | 23 | Oc1cc(-c2ncc3c(N4C[C@@H]5C[C@H](C4)[C@H](O)C5)nc(OC[C@@]45CCCN4C[C@H](F)C5)nc3c2F)c2ccc(Cl)cc2c1 [Example 763, (1R,5R,6R)-3-(7-(6-chloro-3-hydroxynaphthalen-1-yl)-8-fluoro-2-(((2R,7aS)-2-fluorohexahydro-1H-pyrrolizin-7a-yl)methoxy)pyrido[4,3-d]pyrimidin-4-yl)-3-azabicyclo[3.2.1]octan-6-ol] | 5 | -11 | 13 | -25 | – |
| 2670 | 4 | 7 | 3 | 2230 | 7 | 12 | 4 | 5 | 5 | 5 | CCc1cccc2cc3[nH]ncc3c(-c3ncc4c(N5CCCC6(CNS(=O)(=O)N6)C5)nc(OC[C@@]56CCCN5C[C@H](F)C6)nc4c3F)c12 (stereo partly drawn) [Example 772, 7-(7-(5-ethyl-1H-benzo[f]indazol-4-yl)-8-fluoro-2-(((2R,7aS)-2-fluorohexahydro-1H-pyrrolizin-7a-yl)methoxy)pyrido[4,3-d]pyrimidin-4-yl)-2-thia-1,3,7-triazaspiro[4.5]decane 2,2-dioxide] | 3 | 22 | 19 | -4 | – |
